Results from publication PMC4476799, “Englerin A Agonizes the TRPC4/C5 Cation Channels to Inhibit Tumor Cell Line Proliferation” (PLoS ONE, 2015).
pEC50, pIC50: −log10 of the molar value. Where two headings read alike, the source gives them in different places.

System: cancer cell lines from the cancer cell line encyclopedia (CCLE)
Assay: Cell line profiling (CLiP) proliferation experiment
Type: cell-based
Settings: Homo sapiens; for pIC50: read-out: Crossing Point; for pEC50: read-out: Inflection Point
Description: Compound profiling experiment and data analysis was performed as previously described. Data was imported and plotted using the Tibco Spotfire DXP application. Lines were categorized as sensitive, intermediate and refractory as follows: Amax<-40 & Inflection Point <2 ~ Sensitive, Amax>-20 & Inflection Point >10 ~ Refractory, all else were called Intermediate. Cancer Cell line HG-U133 Plus 2 data was processed and normalized as described. […] Five sets of refractory cell lines were generated from the pool of refractory cell lines trying to match the lineage composition of the set of sensitive cell lines. The limma package was used as previously described to perform the statistical comparison.

[1] = HCC1187, cell line HCC1187, breast
[2] = HCC1954, cell line HCC1954, breast
[3] = HCT-15, cell line HCT-15, large_intestine
[4] = HCT-116, cell line HCT 116, large_intestine
[5] = HEC-1-A, cell line HEC-1-A, endometrium
[6] = HPBALL, cell line HPB-ALL, haematopoietic_and_lymphoid_tissue
[7] = Hs 294T, cell line Hs 294T, skin
[8] = Hs 695T, cell line Hs 695T, skin
[9] = KYSE-150, KYSE-150 (oesophagus)
[10] = L-363, L-363 (haematopoietic_and_lymphoid_tissue)
[11] = LN-18, LN-18 (central_nervous_system)
[12] = LN-229, LN-229 (central_nervous_system)
[13] = LS180, LS 180 (large_intestine)
[14] = LS-411N, LS411N (large_intestine)
[15] = MC116, MC116 (haematopoietic_and_lymphoid_tissue)
[16] = MIA PaCa-2, MIA PaCa-2 (pancreas)

CC(C)[C@@]12C[C@@H](O)[C@@](C)(O1)[C@@H]1CC[C@@H](C)[C@H]1[C@@H]2OC(=O)/C=C/c1ccccc1 [Englerin B]
4.61: pIC50 (IGR-37, cell line IGR-37, skin)
4.55: pIC50 (KYSE-70, KYSE-70 (oesophagus))
4.54: pIC50 (HCC1569, cell line HCC1569, breast) | pIC50 (HCC1937, cell line HCC1937, breast) | pIC50 (MEG-01, MEG-01 (haematopoietic_and_lymphoid_tissue))
4.72: pIC50 (HT-29, cell line HT-29, large_intestine)
4.60: pIC50 (HCC1419, cell line HCC1419, breast) | pIC50 (KMS-12-BM, KMS-12-BM cells) | pEC50 (KMS-12-BM, KMS-12-BM cells) | pIC50 (KMS-12-BM) | pEC50 (KMS-12-BM)
4.57: pIC50 (Lu-99, LU99 (lung))
4.64: pIC50 (KYSE-520, KYSE-520 (oesophagus)) | pIC50 (MFE-296, cell line MFE-296 (endometrium))
4.94: pIC50 (KARPAS-422, KARPAS-422) | pEC50 (KARPAS-422, KARPAS-422) | pIC50 (KARPAS-422, KARPAS-422 cells) | pEC50 (KARPAS-422, KARPAS-422 cells)
4.86: pIC50 [1] | pIC50 [2] | pIC50 [11] | pIC50 (MCF7, MCF7 (breast)) | pIC50 (MCF7, MCF7 cells)
4.89: pEC50 (KCL-22, KCL-22) | pEC50 (KCL-22, KCL-22 cells) | pEC50 (Lu-99, LU99 (lung))
5.02: pEC50 (K562, K-562)
5.06: pIC50 (KU812, KU812)
5.09: pEC50 [1] | pEC50 [4] | pIC50 (JeKo-1, JeKo-1)
4.92: pEC50 [9]
4.78: pEC50 [5]
4.56: pEC50 [10]
4.90: pEC50 (KARPAS-299, KARPAS-299) | pEC50 (LoVo, LoVo (large_intestine))
4.85: pIC50 [15] | pEC50 [15]
4.70: pIC50 (HRT-18, cell line HRT-18, large_intestine) | pEC50 (J82, J82)
4.96: pIC50 (HGC-27, cell line HGC-27, stomach)
< 4.52: pIC50 (HCC1143, cell line HCC1143) | pIC50 (HCC1395, cell line HCC1395, breast) | pIC50 (HCC1395, cell line HCC1395) | pIC50 (HCC1428, cell line HCC1428, breast) | pIC50 (HCC1428, cell line HCC1428) | pIC50 (HCC1806, cell line HCC1806, breast) | pIC50 (HCC1806, cell line HCC1806) | pIC50 (HCC2218, cell line HCC2218, breast) | pIC50 (HCC2218, cell line HCC2218) | pIC50 [3] | pIC50 (HCT-15, cell line HCT-15) | pIC50 [4] | pIC50 (HCT-116, cell line HCT 116) | pIC50 [5] | pIC50 (HEC-1-A, cell line HEC-1-A) | pIC50 (HMCB, cell line HMCB, skin) | pIC50 (HMCB, cell line HMCB) | pIC50 (HT55, cell line HT55, large_intestine) | pIC50 (HT55, cell line HT55) | pIC50 (HT-144, cell line HT-144, skin) | pIC50 (HT-144, cell line HT-144) | pIC50 (HT-1080, cell line HT-1080, soft_tissue) | pIC50 (HT-1080, cell line HT-1080) | pIC50 (HT-1376, cell line HT-1376, urinary_tract) | pIC50 (HT-1376, cell line HT-1376) | pIC50 [7] | pIC50 (Hs 294T, cell line Hs 294T) | pIC50 [8] | pIC50 (Hs 695T, cell line Hs 695T) | pIC50 (Hs-578T, cell line Hs 578T, breast) | pIC50 (Hs-578T, cell line Hs 578T) | pIC50 (HuH-1, cell line huH-1, liver) | pIC50 (HuH-1, huH-1 (liver)) | pIC50 (HuP-T3, cell line HUP-T3, pancreas) | pIC50 (HuP-T3, cell line HUP-T3) | pIC50 (IGR-1, IGR-1 cells) | pIC50 (IGR-1, cell line IGR-1, skin) | pIC50 (IGROV-1, IGROV1 cells) | pIC50 (IGROV-1, cell line IGROV1, ovary) | pIC50 (IPC-298, IPC-298) | pIC50 (IPC-298, cell line IPC-298) | pIC50 (Ishikawa, Ishikawa (Heraklio) 02 ER- cells) | pIC50 (Ishikawa, Ishikawa (Heraklio) 02 ER-) | pIC50 (J82, J82) | pIC50 (JIMT-1, JIMT-1) | pIC50 (JIMT-1, JIMT-1 cells) | pIC50 (JJN-3, JJN-3) | pIC50 (JJN-3, cell line JJN-3) | pIC50 (JVM-3, JVM-3) | pIC50 (JVM-3, cell line JVM-3) | pIC50 (K562, K-562) | pIC50 (K562, cell line K-562) | pIC50 (KLE) | pIC50 (KM12, KM12) | pIC50 (KM12, KM12 cells) | pIC50 (KNS-62, KNS-62) | pIC50 (KNS-62, KNS-62 cells) | pIC50 (KYSE-30, KYSE-30 (oesophagus)) | pIC50 [9] | pIC50 (KYSE-270, KYSE-270 (oesophagus)) | pIC50 (KYSE-270, cell line KYSE-270) | pIC50 (KYSE-450, KYSE-450 (oesophagus)) | pIC50 (KYSE-450, KYSE-450 cells) | pIC50 (KYSE-510, KYSE-510 (oesophagus)) | pIC50 (LAMA-84, LAMA-84 (haematopoietic_and_lymphoid_tissue)) | pIC50 (LAMA-84, LAMA-84 cells) | pIC50 (LCLC-97TM1, LCLC-97TM1 (lung)) | pIC50 (LCLC-97TM1, LCLC-97TM1 cells) | pIC50 (LCLC-103H, LCLC-103H (lung)) | pIC50 (LCLC-103H, LCLC-103H cells) | pIC50 [12] | pIC50 (LOX IMVI, LOX IMVI (skin)) | pIC50 (LOX IMVI, LOX IMVI cells) | pIC50 [13] | pIC50 (LS180, LS 180 cells) | pIC50 (LXF-289, LXF-289 (lung)) | pIC50 (LoVo, LoVo (large_intestine)) | pIC50 (Lu-65, LU65 (lung)) | pIC50 (MDA-MB-175-VII, MDA-MB-175-VII (breast)) | pIC50 (MDA-MB-231, MDA-MB-231 (breast)) | pIC50 (MDA-MB-231, cell line MDA-MB-231 (breast, NS)) | pIC50 (MDA-MB-415, MDA-MB-415 (breast)) | pIC50 (MDA-MB-436, MDA-MB-436 (breast)) | pIC50 (MDA-MB-468, MDA-MB-468 (breast)) | pIC50 (MDA-MB-468, MDA-MB-468 cells) | pIC50 (MEL-JUSO, MEL-JUSO (skin)) | pIC50 (MEL-JUSO, cell line MEL-JUSO (skin)) | pIC50 (MG-63, cell line MG-63 (bone)) | pIC50 (MG-63, cell line MG-63) | pIC50 [16] | pIC50 (MIA PaCa-2, cell line MIA PaCa-2 (pancreas))
4.74: pIC50 (MDA-MB-453, MDA-MB-453 (breast))
4.93: pEC50 [6]
4.62: pIC50 (HEL 92.1.7, cell line HEL 92.1.7, haematopoietic_and_lymphoid_tissue) | pIC50 (IMR-32, IMR-32) | pEC50 (IMR-32, IMR-32) | pIC50 (IMR-32, IMR-32 cells) | pEC50 (IMR-32, IMR-32 cells)
4.79: pIC50 (Jurkat) | pIC50 [14] | pEC50 [14]
4.97: pEC50 (MCF7, MCF7 (breast)) | pEC50 (MCF7, MCF7 cells)
4.88: pIC50 (KARPAS-299, KARPAS-299) | pEC50 (KMS-11, KMS-11) | pEC50 (KMS-11, KMS-11 cells) | pEC50 (KU812, KU812) | pEC50 (KU812, KU812 cells) | pEC50 [11] | pEC50 (LN-18, LN-18 cells)
5.01: pEC50 [13] | pEC50 (LS180, LS 180 cells)
5.12: pEC50 (HuH-1, cell line huH-1, liver) | pEC50 (JeKo-1, JeKo-1) | pEC50 (JeKo-1, JeKo-1 cells)
4.87: pIC50 (KCL-22, KCL-22) | pIC50 (KCL-22, KCL-22 cells) | pIC50 (KMS-11, KMS-11)
4.73: pEC50 (HMCB, cell line HMCB, skin) | pEC50 (HMCB, cell line HMCB) | pEC50 (KATO III, cell line KATO III) | pEC50 (KATO III) | pIC50 [10] | pIC50 (LP-1, LP-1 cells) | pEC50 (LP-1, LP-1 cells)
4.66: pEC50 [8] | pIC50 (KYSE-410, KYSE-410 (oesophagus)) | pEC50 [12]
5.98: pEC50 (IPC-298, IPC-298)
4.71: pIC50 (KATO III)
4.98: pEC50 [3]
4.65: pEC50 [7] | pIC50 (MEC1, MEC-1 (haematopoietic_and_lymphoid_tissue))
4.76: pIC50 (HPBALL, cell line HPB-ALL (haematopoietic_and_lymphoid_tissue, acute_lymphoblastic_T_cell_leukaemia)) | pIC50 [6]
4.68: pIC50 (JVM-2, JVM-2) | pEC50 (JVM-2, JVM-2) | pIC50 (JVM-2, JVM-2 cells) | pEC50 (JVM-2, JVM-2 cells)
4.95: pEC50 [2] | pEC50 (HCC1954, cell line HCC1954) | pEC50 (KLE) | pEC50 [16]
